The values below come from patent publication US20030162759A1, “Aldosterone blocker therapy to prevent or treat inflammation-related disorders” (priority 2000, published 2003).

Each structure is given as a SMILES string. Where “and” joins values, the source holds several entries; their conditions need not be identical. Equal entries are not always repeated.

The test system of test [1] is aldosterone + salt treated rats. Description: Assay C further aldosterone infusion study: body weight, ventricle weights, tibia length (myocardial hypertrophy). The test is classed as in vivo, rat. The conditions noted are these: for Ventricular weights and ventricular weight to tibia length ratios (hypertrophy): 7, 14, 30 days. An excerpt:
Assay C: Further in vivo Aldosterone Infusion Study The procedure of Assay B was expanded upon in a further study. […] Myocardial tissue from animals in each treatment group was examined after 7, 14, or 30 days of treatment. […] Lesions were preceded by the expression and progressive upregulation of proinflammatory molecules. […] Male Sprague-Dawley rats, weighing 230 to 250 g, (Harlan Sprague-Dawley Industries, Indianapolis, Ind.) were housed in a room 12-hours light/12-hours dark daily cycle at an ambient temperature of 22±1° C. (n=96). Animals were allowed one week to adjust after arrival and had free access to TEKLAD 22/5 rodent diet (Harlan TEKLAD, Madison, Wis.) and tap water until the initiation of the experiment. Prior to surgery the animals were individually weighed and placed in one of the following groups: […] Potassium chloride supplementation was added to the saline solution in order to prevent the potential hypokalemia associated with aldosterone excess. […] Louis, Mo.) was inserted subcutaneously at the nape of the neck. Aldosterone was administered at a dose of […]. […] Animals were sacrificed from each group (n=8-13) after 7, 14, or 30 days of treatment. Animals to be sacrificed after 7 or 14 days of treatment were uninephrectomized and implanted with an Alzet minipump. Animals treated for 30 days were uninephrectomized, fitted for Alzet minipumps, and implanted with radio telemetry units (model#TA11PA-C40, Data Sciences Inc., St. Paul, Minn.) according to the following procedure. […] The surgery site was clipped, scrubbed with nolvasan, and sprayed with betadine. A rostral-caudal incision was made through the skin from the base of the rib cage to the pubic region using a #11 scalpel blade. A second incision was made through the muscles of the abdominal wall to expose the peritoneal cavity. […] Organs were carefully displaced with tissue retractors in order to expose the abdominal aorta. A 1.5 cm segment just rostral to the bifurcation of the abdominal aorta into the iliac arteries was cleared of excessive connective tissue and 4-0 silk was used to make an anchor adjacent to the aorta. A microvascular clip was then placed at both ends of the cleaned region to stop excessive blood flow. Using a bent, 21 gauge needle, the abdominal aorta was penetrated. The cannula of the radio telemetry unit was inserted and stabilized in the aorta using the 4-0 silk anchor. Organs were repositioned and the telemetry unit was placed over the organs. Using a non-interrupted suture pattern with 4-0 silk, the abdominal wall was closed, and the skin was subsequently closed using a 4-0 silk in an interrupted suture pattern. […] Post-operative care included monitoring the animals on a heating pad during recovery from anesthesia until sternal recumbency was reestablished. At the cessation of each experimental time point, the animals were anesthetized with pentobarbital (65 mg/kg i.p., Sigma Chemical, St. Louis Mo.) and weighed with a Mettler PM6000 balance (Mettler-Toledo, Inc., Hightstown, N.J.). The abdominal cavity was opened to expose the abdominal aorta. A 16-gauge needle was inserted into the abdominal aorta and the animal was exsanguinated into a 12 cc syringe. The blood sample was transferred immediately into glass serum collection tubes (Terumo Medical Corp., Elkton, Md.) for drug level analysis. The samples were placed on wet ice until sample collection was complete and centrifuged for 15 min at 3000 rev/min at 4° C. Following exsanguination, hearts and kidneys were isolated, removed, rinsed in cold phosphate-buffered saline, and blotted dry.

Another test concerns Collagen I. The experiment in a line: Assay C: Collagen I mRNA in left ventricle (TaqMan). The test is classed as in vivo, rat. To be noted: for Collagen type-I message: 30 days, compared to vehicle+salt controls; for Collagen-I mRNA: individual rats. The method, then: The procedure of Assay B was expanded upon in a further study. […] Myocardial tissue from animals in each treatment group was examined after 7, 14, or 30 days of treatment.
Potassium chloride supplementation was added to the saline solution in order to prevent the potential hypokalemia associated with aldosterone excess.
At the time of the surgery, an Alzet 2002 osmotic minipump (Alza Corp., Palo Alto, Calif.) containing either vehicle (9% ethanol/87% propylene glycol/4% dH2O) or 1.0 mg/mL d-aldosterone (Sigma Chemical, St. Louis, Mo.) was inserted subcutaneously at the nape of the neck. Aldosterone was administered at a dose of 0.75 g/hour. […] Animals were sacrificed from each group (n=8-13) after 7, 14, or 30 days of treatment.
Following exsanguination, hearts and kidneys were isolated, removed, rinsed in cold phosphate-buffered saline, and blotted dry. Kidneys were immediately bifurcated through the long axis with a razor blade and placed in 10% neutral buffered formalin (NBF, Richard-Allen Scientific, Kalamazoo, Mich.). For the hearts, the right ventricle (RV) was cut away from the left ventricle (LV), both ventricles were weighed using a Mettler AE163 balance (Mettler-Toledo, Inc., Hightstown, N.J.), and the RV was placed in 10% NBF. A 2 mm coronal slab of the LV apex was removed and frozen with dry ice/isopentane for analysis of gene expression and the remaining portion of the LV was placed in 10% NBF for fixation. Final wet trimming was completed after 3-4 days fixation where a second 2 mm coronal slab was removed for hydroxyproline analysis and a third 2 mm slab was removed from the equatorial region for histology.
The fluorogenic 5′-nuclease assay (TaqMan PCR) using Applied Biosystems' 7700 Sequence Detection System (Applied Biosystems, Foster City, Calif.) allowed for real time detection/quantitation of a specific gene by monitoring the increase in fluorescence of a gene-specific, dye-labeled oligonucleotide probe. Probes for target and reference genes were labeled at the 5′-end with a 6-carboxyfluorescein (6FAM) reporter dye and at the 3′-end with a 6-carboxy-N,N,N′,N′-tetramethylrhodamine (TAMRA) quencher dye. When the probe was annealed to the target gene, fluorescence of 6FAM was prevented by the close proximity of TAMRA. The exonuclease activity of Taq polymerase released the dyes from the oligonucleotide probe by displacing the probe from the target sequence resulting in fluorescence excitation in direct proportion to the amount of target message present. Data analysis was performed using the Sequence Detection System software from Applied Biosystems.
Primers and probes were designed using Oligo Primer Analysis Software, Version 5.0 (National Biosciences Inc. (NBI)-Wojciech Rychlik, Cascade, Colo.). Primers were synthesized by Life Technologies (Grand Island, N.Y.) and probes were synthesized by Applied Biosystems. Primer/probe sets were designed from known sequences of rat genes to be analyzed. All target gene values were normalized to a reference gene, constitutively expressed cyclophilin. Primer/probe sets sequences can be found in Table 8
RNA was extracted from frozen (−70° C.) left ventricle (LV) tissue (approximately 10-20 mg) using 1.5 mL RNA-STAT 60 according to manufacturer's instructions (Leedo Medical Laboratories, Inc., Houston, Tex.). Briefly, tissues were homogenized using a tissue homogenizer equipped with a 5 mm probe (Ultra-Turrax T8 Homogenizer, IKA Works, Inc. Wilmington, N.C.). Following homogenization, an equal volume of molecular grade chloroform (Sigma Chemical Co., St. Louis, Mo.) was incubated with periodic mixing for 10 min at room temperature. Samples were centrifuged at 12,000 g for 10 min and RNA was precipitated from the top layer by adding an equal volume of molecular grade isopropanol (Sigma Chemical Co.) followed by an overnight incubation at −80° C.

The mark [2] stands for this setting: mean ± SEM after 30 days of treatment, eplerenone 100 mg/kg/day.
Setting [3] is: group Mean row of Table 9.11, 7 days of treatment.
The mark [4] stands for this setting: individual rats, 7 days of treatment, eplerenone 100 mg/kg/day, listed as Aldosterone + salt.

As to `COC(=O)[C@@H]1CC2=CC(=O)CC[C@]2(C)[C@@]23O[C@@H]2C[C@@]2(C)[C@@H](CC[C@@]24CCC(=O)O4)[C@H]13` [eplerenone, Pregn-4-ene-7,21-dicarboxylic acid, 9,11-epoxy-17-hydroxy-3-oxo-, γ-lactone, methyl ester, (7α, 11α, 17β) -], the “Ventricular weights and ventricular weight to tibia length ratios (hypertrophy)” value in test [1] (eplerenone 100 mg/kg/day) is “did not impact absolute ventricular weights or ventricular weight to tibia length ratios”. For the same molecule, the “Right Ventricle Weight/Tibia Length” value turned out to be 50 mg/cm in test [1] (Table 9.13, 30-day protocol, eplerenone 100 mg/kg/day, individual rats, listed as Eplerenone + aldosterone + salt) and 51 ± 2 mg/cm in test [1] (setting [2]). The “Decrease in body weight induced by aldosterone+salt” value in test [1] (day 30, eplerenone 100 mg/kg/day) is listed as “significantly attenuated”. The “Final Body Weight” value in test [1] (individual rats, 7 days of treatment, eplerenone 100 mg/kg/day, listed as Eplerenone + aldosterone + salt) is 306 g and 295 g (2×) and 277 g and 276 g. Moreover, the Left Ventricle Weight/Tibia Length in test [1] (setting [2]) was 240 ± 9 mg/cm. The “Collagen type-I message” value in the test with Collagen I was “modest increase”. In addition, the “Collagen-I mRNA, Mean” value with Collagen I (group mean, 30 days of treatment) was 2.53 AU. Also, the “Collagen-I mRNA” value in the test on Collagen I (14 days of treatment, relative to cyclophilin expression, listed as Eplerenone + aldosterone + salt) was 0.90 AU and 1.14 AU and 0.50 AU; in the test on Collagen I (30 days of treatment, relative to cyclophilin expression, listed as Eplerenone + aldosterone + salt) it was 2.98 AU and 2.90 AU. Further, the “Collagen-I (collagen type I mRNA)” value in the test with Collagen I (mean ± SEM after 7 days of treatment, relative to cyclophilin expression) stood at 0.85 ± 0.15 AU.

With `C[C@]12CCC(=O)C=C1CC[C@@H]1[C@@H]2[C@@H](O)C[C@]2(C=O)[C@@H](C(=O)CO)CC[C@@H]12` [aldosterone], in test [1] (eplerenone 100 mg/kg/day), the “Ventricular weights and ventricular weight to tibia length ratios (hypertrophy)” value is “Significant left and right ventricular hypertrophy”. Besides, in test [1] (setting [3]), the “Final Body Weight” value amounted to 277 g and the “Right Ventricle Weight/Tibia Length” value turned out to be 48 mg/cm. Further, in test [1] (setting [4]), the “Left Ventricle Weight” value was 620 mg; the “Left Ventricle Weight/Tibia Length” value was found to be 200 mg/cm; the “Right Ventricle Weight/Tibia Length” value is 48 mg/cm and 49 mg/cm and 57 mg/cm and 47 mg/cm (2×) and 44 mg/cm and 41 mg/cm and 51 mg/cm and 55 mg/cm. In test [1] (setting [2]), the “Left Ventricle Weight” value is reported as 910 ± 29 mg, the “Right Ventricle Weight” value came out at 192 ± 8 mg, the Right Ventricle Weight/Tibia Length amounted to 49 ± 2 mg/cm and the “Tibia Length” value is 3.9 ± 0.02 cm. In addition, the “Collagen type-I message” value with Collagen I is on record as “modest increase”. Besides, the “Collagen-I mRNA” value in the test with Collagen I (Table 9.14, 7-day protocol, listed as Aldosterone + salt) was 0.84 AU and 1.40 AU. For the same molecule, the “Collagen-I mRNA” value in the test on Collagen I (14 days of treatment, relative to cyclophilin expression, listed as Aldosterone + salt) was 0.25 AU and 1.00 AU and 1.20 AU and 1.70 AU and 0.43 AU. Further, the “Collagen-I mRNA” value in the test with Collagen I (30 days of treatment, relative to cyclophilin expression, listed as Aldosterone + salt) is 2.20 AU. Besides, the “Collagen-I (collagen type I mRNA)” value with Collagen I (mean ± SEM after 14 days of treatment, relative to cyclophilin expression) was determined as 1.33 ± 0.24 AU.
